Read-outs that look alike come from different tables or passages of the source.
Experiment: Pharmacokinetic study after oral dosing, rat
Assay type: in vivo, SD Rat
Settings: for Cmax / AUC(0-t) / concentration at 24 h: male, SD (Sprague-Dawley), rat, in vivo, po, oral, suspension in 0.5% methocel + 0.1% tween 80 in water, SD Rat male, Fed, 5 mL/kg; for AUC(0-t): read-out: AUC0-24 h; for concentration at 24 h: read-out: C24 h
Procedure: The pharmacokinetic profile of (S)-4-(2,2-difluoro-7-((5-methoxy-7-methyl-1H-indol-4-yl)methyl)-7-azaspiro[3.5]nonan-6-yl)benzoic acid was assessed in rats, dogs or non-human primates (NHPs) as the amorphous compound as a solution in 20% kleptose in water and as a suspension of Form A in 0.5% methocel+0.1% tween 80 in water.
Amorphous (S)-4-(2,2-difluoro-7-((5-methoxy-7-methyl-1H-indol-4-yl)methyl)-7-azaspiro[3.5]nonan-6-yl)benzoic acid was weighed into a glass vial with a magnetic stir bar to give formulations at dose concentrations of 0.1-1000 mg/kg. Approx. ⅓ the final volume of 20% kleptose (hydroxypropyl β-cyclodextrin, Aldrich, CAS #128446-35-5) in water was added to the vial (to afford either a 5 mL/kg or 10 mL/kg dose volume, depending on the species). The mixture was basified to a pH of 8.5 to 10 using dropwise addition of 2-5 M aqueous NaOH solution, with pH monitoring. The suspension was stirred, vortexed, and sonicated for 15-20 minutes to afford a homogenous mixture. The second ⅓ of the final volume of 20% kleptose was added to the vial and further stirred, vortexed, and sonicated for 15-20 minutes to afford a homogenous mixture. The pH was monitored and further pH adjustment to pH 8.5 to 10, if necessary, can be applied. The final ⅓ the final volume of 20% kleptose was added to the vial and further stirred, vortexed, and sonicated for 15-20 minutes to afford a homogenous solution. The pH of the solution was adjusted to a pH of 7.5 to 8.0 with dropwise addition of 1.0 M aqueous HCl solution with gentle stirring. The formulation should remain in solution.
Form A crystalline (S)-4-(2,2-difluoro-7-((5-methoxy-7-methyl-1H-indol-4-yl)methyl)-7-azaspiro[3.5]nonan-6-yl)benzoic acid was weighed into a glass vial with a magnetic stir bar to give formulations at dose concentrations of 0.1-1000 mg/kg. The crystalline material should preferably have a particle size with a D50 below 50 μm, and ideally with a D50 below 5 μm. The desired volume of 0.5% methocel (viscosity 400 cP, Aldrich, CAS #9004-67-5)/0.1% tween-80 (Aldrich, CAS #9005-65-6) was added (to afford a 5 mL/kg dose volume). The contents of the vial were stirred at 400-500 rpm on a stir-plate. Gentle vortex or bath sonication can be applied to break down any large clumps. The vial should be mixed well to ensure homogeneity right before animal dosing.

[1] = 30 mg/kg, 30 mg/kg, particle size D50 = 5.1 μm
[2] = 300 mg/kg, 300 mg/kg, particle size D50 = 5.1 μm
[3] = 300 mg/kg, 300 mg/kg, particle size D50 = 101 μm

SMILES: COc1cc(C)c2[nH]ccc2c1CN1CCC2(C[C@H]1c1ccc(C(=O)O)cc1)CC(F)(F)C2 [Form A, (S)-4-(2,2-difluoro-7-((5-methoxy-7-methyl-1H-indol-4-yl)methyl)-7-azaspiro[3.5]nonan-6-yl)benzoic acid]
- Cmax [1]: 6.1 µM
- AUC(0-t) [1]: 79.2 µM·h
- concentration at 24 h [1]: 1.9 µM
- Cmax [2]: 157 µM
- AUC(0-t) [2]: 958 µM·h
- concentration at 24 h [2]: 3.3 µM
- Cmax [3]: 80 µM
- AUC(0-t) [3]: 547 µM·h
- concentration at 24 h [3]: 2.7 µM
- Cmax, AUC0-24 and C24h compared with the amorphous form (oral dosing, smaller particle size): higher

— patent US20260159497A1, “SOLID FORMS OF A COMPLEMENT FACTOR B INHIBITOR” (Novartis Pharma AG, priority 2022, published 2026)
